Data as given in ChEMBL document CHEMBL1138447, “New Rev-export inhibitor from Alpinia galanga and structure-activity relationship” (Bioorg Med Chem Lett, 2009).
The source made the active and inactive calls. The calls are words filed in the database; no cut-off is given here.

Tested on: HeLa
Test: Inhibition of hemagglutininin-tagged HIV1 Rev protein nuclear export in human HeLa cells assessed as localization at 5 uM by indirect fluorescent antibody technique
Format: cell-based
Details: Human immunodeficiency virus 1

## C=C[C@H](OC(C)=O)c1ccc(OC(C)=O)cc1
  Activity: Active
